Test results taken from patent publication US20220401408A1, “COMPOSITIONS AND METHODS FOR RESCUING RETINAL AND CHOROIDAL STRUCTURE AND FUNCTION” (AUCKLAND UNISERVICES LIMITED, priority 2019, published 2022).

Test system: GFAP, Iba-1, Connexin43 (retinal inflammation markers)
Assay: Immunohistochemical labelling of GFAP, Iba-1 and Connexin43 in retina of light damaged rats
Format: in vivo, Sprague Dawley (SD) rats
Description: Retina Light Damage Model of Dry Age-Related Macular Degeneration—The intense light damage model was prepared and carried out as described in previous studies. Mat Nor N, Guo C X, Rupenthal ID, Chen Y S, Green C R, Acosta M L. Sustained Connexin43 Mimetic Peptide Release From Loaded Nanoparticles Reduces Retinal and Choroidal Photodamage. Invest Ophthalmol Vis Sci. 2018; 59:3682-93; Guo C X, Mat Nor M N, Danesh-Meyer H V, Vessey K A, Fletcher E L, O'Carroll S J, et al. Connexin43 Mimetic Peptide Improves Retinal Function and Reduces Inflammation in a Light-Damaged Albino Rat Model. Invest Ophthalmol Vis Sci. 2016; 57:3961-73; Guo C X, Tran H, Green C R, Danesh-Meyer H V, Acosta M L. Gap junction proteins in the light-damaged albino rat. Mol Vis. 2014; 20:670-82; Noell W K, Walker V S, Kang B S, Berman S. Retinal damage by light in rats. Invest Ophthalmol. 1966; 5:450-73. The light damage rat model was selected as it allows direct comparison with this and other drugs. Kim Y, Griffin J M, Nor M N M, Zhang J, Freestone P S, Danesh-Meyer H V, et al. Tonabersat Prevents Inflammatory Damage in the Central Nervous System by Blocking Connexin43 Hemichannels. Neurotherapeutics. 2017; 14:1148-65; Mat Nor N, Guo C X, Rupenthal ID, Chen Y S, Green C R, Acosta M L, supra; Guo C X, Mat Nor M N, Danesh-Meyer H V, Vessey K A, Fletcher E L, O'Carroll S J, et al., supra. […] All experimental procedures were approved by the University of Auckland Animal Ethics Committee, approval No. 001462 and comply with the Association for Research in Vision and Ophthalmology (ARVO) statement for the use of animals in eye research. Six to eight-week old albino Sprague Dawley (SD) rats (200-250 g; male or female) were used. Adult SD rats were exposed to continuous bright light for 24 hours, consistently starting at 9:00 am to minimize possible time-of-day variability. Light exposure was to two animals at a time to prevent rats from taking cover using each other as a shield. The LD protocol and intervention was repeated until the number of individuals for each dose group was obtained (n=7 per group). The light luminance was 2700 lux, generated using fluorescent lamps (Philips Master TLD 18W/965; Koninklijke Philips Electronics N.V., China) directly above the animal cages. The lamps were cool and emitted broadband light, from 380 to 760 nm wavelength, with the average intensity at the top of the cage being 120 W/m2. Animals were free to move within the cage with access to food and water ad libidum. Baseline electroretinography (ERG) readings and optical coherence tomography (OCT) images were collected prior to the light damage. After light exposure, animals were returned to normal light-dark cycle conditions (12 hours light, 174 lux and 12 hours darkness, <62 lux) for 24 hours, 1 week or 2 weeks (and for one group 3 months).
Tonabersat treatment of light damaged rats—LD rats were randomly assigned to low, middle or high dose of tonabersat (n=7 per group). The mixture of tonabersat in peanut butter was prepared fresh for each experiment. Three oral tonabersat doses were tested (n=7 per group) with follow up to 2 weeks post-injury, and the highest dose group then split with three animals taken for histological analysis, and four animals followed to 3 months post-injury. There was a ten-animal vehicle only control group. The group of rats that were kept for 3 months were maintained in separate cages for drug or vehicle-treated animals, but were kept under the same light conditions. Tonabersat was fed to animals in peanut butter at 0.26 mg/kg (on average 0.08 mg delivered, estimated circulating concentration 10 μM), 0.8 mg/kg (average of 0.24 mg delivered; 30 μM circulating) or 2.4 mg/kg (on average 0.72 mg delivered; 90 μM circulating) following consideration of previous unsuccessful human trial dosing levels. Silberstein S D. Tonabersat, a novel gap-junction modulator for the prevention of migraine. Cephalalgia. […]

[1] = all tonabersat treated groups, p<0.001

CC(=O)c1ccc2c(c1)[C@H](NC(=O)c1ccc(F)c(Cl)c1)[C@H](O)C(C)(C)O2 [tonabersat, N-[(3S,4S)-6-acetyl-3-hydroxy-2,2-dimethyl-3,4-dihydrochromen-4-yl]-3-chloro-4-fluorobenzamide]
Iba-1 reactivity (0.26 mg/kg): slightly higher level | GFAP labelling (0.26 mg/kg, significantly less than vehicle): slight increase | GFAP immunoreactivity in the retina compared to vehicle (0.8 mg/kg): did not increase | GFAP immunoreactivity in the retina compared to vehicle (2.4 mg/kg): did not increase | Connexin43 immunoreactivity in the retina compared to vehicle (all three tonabersat doses): less | Connexin43 level, image quantification vs vehicle controls [1]: significantly less | GFAP level, image quantification vs vehicle controls [1]: significantly less | Iba-1 level, image quantification vs vehicle controls [1]: significantly less | Iba-1 immunolabelled cells in inner plexiform layer compared to vehicle (drug treated groups (all three doses)): less active
